Target: T1, endogenous PIP4K2C C-terminally tagged with HiBiT peptide in MOLT-4 cells (Homo sapiens, UniProt Q8TBX8)
T1 construct: to C-terminally tag endogenous PIP4K2C with HiBiT peptide; host or cells: MOLT-4 (CRISPR-Cas9 knock-in clone)
T1 sequence (Q8TBX8 1-421): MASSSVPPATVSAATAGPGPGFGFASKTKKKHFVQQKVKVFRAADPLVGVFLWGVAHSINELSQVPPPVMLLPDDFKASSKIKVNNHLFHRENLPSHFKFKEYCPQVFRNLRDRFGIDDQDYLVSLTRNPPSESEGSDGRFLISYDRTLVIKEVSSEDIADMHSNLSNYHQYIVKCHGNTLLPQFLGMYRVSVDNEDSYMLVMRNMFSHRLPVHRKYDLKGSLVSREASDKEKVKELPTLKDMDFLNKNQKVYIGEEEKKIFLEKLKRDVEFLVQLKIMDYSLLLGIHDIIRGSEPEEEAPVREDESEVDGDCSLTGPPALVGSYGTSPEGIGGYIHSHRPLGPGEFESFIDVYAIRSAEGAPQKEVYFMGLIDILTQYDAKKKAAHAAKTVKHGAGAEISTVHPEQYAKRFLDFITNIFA
Assay: HiBiT PIP4K2C degradation assay in MOLT-4 cells
Format: cell-based
Settings: 24 hours, 10-point dose response, top concentration 10 micromolar, read-out: HiBIT-degradation MOLT4 PIP4k2C 24 hours DC50
Procedure, shortened: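 Cells bearing C-terminal HiBiT knock-in were exposed to a 10-point, 3-fold dilution series (top 10 micromolar, duplicate) for 24 h at 37C, 5% CO2. Remaining tagged protein read by lytic HiBiT luminescence; DC50 from Hill-equation fit.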

DC50 [µM]	Compound
< 0.5	O=C1CCC(N2C(=O)c3cccc(OCCCCCCCC(=O)N4CCC5(CC4)CCN(c4cncc(Nc6ncc(Cl)c(-c7cccc(-c8ccccc8)c7)n6)c4)C5=O)c3C2=O)C(=O)N1 (stereo not shown) [Compound 79, 4-((8-(2-(5-((4-([1,1′-biphenyl]-3-yl)-5-chloropyrimidin-2-yl)amino)pyridin-3-yl)-1-oxo-2,8-diazaspiro[4.5]decan-8-yl)-8-oxooctyl)oxy)-2-(2,6-dioxopiperidin-3-yl)isoindoline-1,3-dione]
< 0.5	O=C1CCC(N2C(=O)c3cccc(OCCCCCCC(=O)N4CCC5(CC4)CCN(c4cncc(Nc6ncc(Cl)c(-c7cccc(-c8ccccc8)c7)n6)c4)C5=O)c3C2=O)C(=O)N1 (stereo not shown) [Compound 80, 4-((7-(2-(5-((4-([1,1′-biphenyl]-3-yl)-5-chloropyrimidin-2-yl)amino)pyridin-3-yl)-1-oxo-2,8-diazaspiro[4.5]decan-8-yl)-7-oxoheptyl)oxy)-2-(2,6-dioxopiperidin-3-yl)isoindoline-1,3-dione]
< 0.5	O=C(CCCOc1cccc2c1C(=O)N(C1CCC(=O)NC1=O)C2=O)NCCCCCCCC(=O)Nc1cncc(Nc2ncc(Cl)c(-c3cccc(-c4ccccc4)c3)n2)c1 (stereo not shown) [Compound 81, N-(5-((4-([1,1′-biphenyl]-3-yl)-5-chloropyrimidin-2-yl)amino)pyridin-3-yl)-8-(4-((2-(2,6-dioxopiperidin-3-yl)-1,3-dioxoisoindolin-4-yl)oxy)butanamido)octanamide]
< 0.5	O=C1CCC(N2Cc3cc(NCCCCCC(=O)N4CCC5(CC4)CCN(c4cncc(Nc6ncc(Cl)c(-c7cccc(-c8ccccc8)c7)n6)c4)C5=O)ccc3C2=O)C(=O)N1 (stereo not shown) [Compound 82, 3-(5-((6-(2-(5-((4-([1,1′-biphenyl]-3-yl)-5-chloropyrimidin-2-yl)amino)pyridin-3-yl)-1-oxo-2,8-diazaspiro[4.5]decan-8-yl)-6-oxohexyl)amino)-1-oxoisoindolin-2-yl)piperidine-2,6-dione]
1 to 5	O=C(CCCCCOc1cccc2c1C(=O)N(C1CCC(=O)NC1=O)C2=O)NCCCCCC(=O)Nc1cncc(Nc2ncc(Cl)c(-c3cccc(-c4ccccc4)c3)n2)c1 (stereo not shown) [Compound 83, N-(5-((4-([1,1′-biphenyl]-3-yl)-5-chloropyrimidin-2-yl)amino)pyridin-3-yl)-6-(6-((2-(2,6-dioxopiperidin-3-yl)-1,3-dioxoisoindolin-4-yl)oxy)hexanamido)hexanamide]
< 0.5	O=C1CCC(N2Cc3cc(NCCCCC(=O)N4CCC5(CC4)CCN(c4cncc(Nc6ncc(Cl)c(-c7cccc(-c8ccccc8)c7)n6)c4)C5=O)ccc3C2=O)C(=O)N1 (stereo not shown) [Compound 84, 3-(5-((5-(2-(5-((4-([1,1′-biphenyl]-3-yl)-5-chloropyrimidin-2-yl)amino)pyridin-3-yl)-1-oxo-2,8-diazaspiro[4.5]decan-8-yl)-5-oxopentyl)amino)-1-oxoisoindolin-2-yl)piperidine-2,6-dione]
0.5 to 1	O=C(COc1cccc2c1C(=O)N(C1CCC(=O)NC1=O)C2=O)NCCCCCCCCCC(=O)Nc1cncc(Nc2ncc(Cl)c(-c3cccc(-c4ccccc4)c3)n2)c1 (stereo not shown) [Compound 85, N-(5-((4-([1,1′-biphenyl]-3-yl)-5-chloropyrimidin-2-yl)amino)pyridin-3-yl)-10-(2-((2-(2,6-dioxopiperidin-3-yl)-1,3-dioxoisoindolin-4-yl)oxy)acetamido)decanamide]
< 0.5	O=C(COc1cccc2c1C(=O)N(C1CCC(=O)NC1=O)C2=O)NCCCCCCCC(=O)Nc1cncc(Nc2ncc(Cl)c(-c3cccc(-c4ccccc4)c3)n2)c1 (stereo not shown) [Compound 86, N-(5-((4-([1,1′-biphenyl]-3-yl)-5-chloropyrimidin-2-yl)amino)pyridin-3-yl)-8-(2-((2-(2,6-dioxopiperidin-3-yl)-1,3-dioxoisoindolin-4-yl)oxy)acetamido)octanamide]
< 0.5	O=C1CCC(N2Cc3cc(OCCCCC(=O)N4CCC5(CC4)CCN(c4cncc(Nc6ncc(Cl)c(-c7cccc(-c8ccccc8)c7)n6)c4)C5=O)ccc3C2=O)C(=O)N1 (stereo not shown) [Compound 87, 3-(5-((5-(2-(5-((4-([1,1′-biphenyl]-3-yl)-5-chloropyrimidin-2-yl)amino)pyridin-3-yl)-1-oxo-2,8-diazaspiro[4.5]decan-8-yl)-5-oxopentyl)oxy)-1-oxoisoindolin-2-yl)piperidine-2,6-dione]
< 0.5	O=C1CCC(N2Cc3cc(OCCCCCC(=O)N4CCC5(CC4)CCN(c4cncc(Nc6ncc(Cl)c(-c7cccc(-c8ccccc8)c7)n6)c4)C5=O)ccc3C2=O)C(=O)N1 (stereo not shown) [Compound 88, 3-(5-((6-(2-(5-((4-([1,1′-biphenyl]-3-yl)-5-chloropyrimidin-2-yl)amino)pyridin-3-yl)-1-oxo-2,8-diazaspiro[4.5]decan-8-yl)-6-oxohexyl)oxy)-1-oxoisoindolin-2-yl)piperidine-2,6-dione]
< 0.5	O=C(CCOc1cccc2c1C(=O)N(C1CCC(=O)NC1=O)C2=O)NCCCCCCCCC(=O)Nc1cncc(Nc2ncc(Cl)c(-c3cccc(-c4ccccc4)c3)n2)c1 (stereo not shown) [Compound 89, N-(5-((4-([1,1′-biphenyl]-3-yl)-5-chloropyrimidin-2-yl)amino)pyridin-3-yl)-9-(3-((2-(2,6-dioxopiperidin-3-yl)-1,3-dioxoisoindolin-4-yl)oxy)propanamido)nonanamide]
1 to 5	O=C1CCC(Nc2ccc(N3CCC(N4CCC5(CCN(c6cncc(Nc7ncc(Cl)c(N8CCCCC8)n7)c6)C5=O)CC4)CC3)cc2)C(=O)N1 (stereo not shown) [Compound 91, 3-((4-(4-(2-(5-((5-chloro-4-(piperidin-1-yl)pyrimidin-2-yl)amino)pyridin-3-yl)-1-oxo-2,8-diazaspiro[4.5]decan-8-yl)piperidin-1-yl)phenyl)amino)piperidine-2,6-dione]
< 0.5	O=C1CCC(N2Cc3cc(OCCCCCCC(=O)N4CCC5(CC4)CC(=O)N(c4cncc(Nc6ncc(Cl)c(-c7cccc(-c8ccccc8)c7)n6)c4)C5)ccc3C2=O)C(=O)N1 (stereo not shown) [Compound 166, 3-(5-((7-(2-(5-((4-([1,1′-biphenyl]-3-yl)-5-chloropyrimidin-2-yl)amino)pyridin-3-yl)-3-oxo-2,8-diazaspiro[4.5]decan-8-yl)-7-oxoheptyl)oxy)-1-oxoisoindolin-2-yl)piperidine-2,6-dione]
< 0.5	O=C(COc1ccc2c3c(cccc13)C(=O)N2C1CCC(=O)NC1=O)NCCCCCCCCCC(=O)Nc1cncc(Nc2ncc(Cl)c(-c3cccc(-c4ccccc4)c3)n2)c1 (stereo not shown) [Compound 167, N-(5-((4-([1,1′-biphenyl]-3-yl)-5-chloropyrimidin-2-yl)amino)pyridin-3-yl)-10-(2-((1-(2,6-dioxopiperidin-3-yl)-2-oxo-1,2-dihydrobenzo[cd]indol-6-yl)oxy)acetamido)decanamide]
< 0.5	O=C1CCC(Nc2ccc(N3CCC(CC(=O)N4CCC5(CC4)CCN(c4cncc(Nc6ncc(Cl)c(N7CCCCC7)n6)c4)C5=O)CC3)cc2)C(=O)N1 (stereo not shown) [Compound 168, 3-((4-(4-(2-(2-(5-((5-chloro-4-(piperidin-1-yl)pyrimidin-2-yl)amino)pyridin-3-yl)-1-oxo-2,8-diazaspiro[4.5]decan-8-yl)-2-oxoethyl)piperidin-1-yl)phenyl)amino)piperidine-2,6-dione]
< 0.5	O=C1CCC(Nc2ccc(C3CCN(CC(=O)N4CCC5(CC4)CCN(c4cncc(Nc6ncc(Cl)c(N7CCC[C@H](O)C7)n6)c4)C5=O)CC3)cc2)C(=O)N1 (stereo partly drawn) [Compound 169, 3-((4-(1-(2-(2-(5-((5-chloro-4-((S)-3-hydroxypiperidin-1-yl)pyrimidin-2-yl)amino)pyridin-3-yl)-1-oxo-2,8-diazaspiro[4.5]decan-8-yl)-2-oxoethyl)piperidin-4-yl)phenyl)amino)piperidine-2,6-dione]
< 0.5	O=C1CCC(Nc2ccc(C3CCN(CC(=O)N4CCC5(CC4)CCN(c4cncc(Nc6ncc(Cl)c(N7CCC[C@@H](O)C7)n6)c4)C5=O)CC3)cc2)C(=O)N1 (stereo partly drawn) [Compound 170, 3-((4-(1-(2-(2-(5-((5-chloro-4-((R)-3-hydroxypiperidin-1-yl)pyrimidin-2-yl)amino)pyridin-3-yl)-1-oxo-2,8-diazaspiro[4.5]decan-8-yl)-2-oxoethyl)piperidin-4-yl)phenyl)amino)piperidine-2,6-dione]
< 0.5	O=C1CCC(Nc2ccc(C3CCN(CC(=O)N4CCC5(CC4)CCN(c4cncc(Nc6ncc(Cl)c(N7CCC[C@@H](C(F)(F)F)C7)n6)c4)C5=O)CC3)cc2)C(=O)N1 (stereo partly drawn) [Compound 171, 3-((4-(1-(2-(2-(5-((5-chloro-4-((R)-3-(trifluoromethyl)piperidin-1-yl)pyrimidin-2-yl)amino)pyridin-3-yl)-1-oxo-2,8-diazaspiro[4.5]decan-8-yl)-2-oxoethyl)piperidin-4-yl)phenyl)amino)piperidine-2,6-dione]
< 0.5	O=C1CCC(Nc2ccc(C3CCN(CC(=O)N4CCC5(CC4)CCN(c4cncc(Nc6ncc(Cl)c(N7CCC[C@H](C(F)(F)F)C7)n6)c4)C5=O)CC3)cc2)C(=O)N1 (stereo partly drawn) [Compound 172, 3-((4-(1-(2-(2-(5-((5-chloro-4-((S)-3-(trifluoromethyl)piperidin-1-yl)pyrimidin-2-yl)amino)pyridin-3-yl)-1-oxo-2,8-diazaspiro[4.5]decan-8-yl)-2-oxoethyl)piperidin-4-yl)phenyl)amino)piperidine-2,6-dione]

Reference: US20260184691A1, “INHIBITORS AND DEGRADERS OF PIP4K PROTEIN” (Larkspur Biosciences, Inc., priority 2022, published 2026)
